Results reported in ChEMBL document CHEMBL1201862, “PubChem BioAssay data set” (2004).
Active and inactive are the calls of the source.

What was measured:
[1] = molecular target: T1, Oxysterols receptor LXR-beta (Homo sapiens, UniProt P55055); assay type: functional, cell-based;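 note: agonist activity at LXR measured by a cell-based luminescence readout across a dose range, run as a counterscreen for daf-12 agonists; HEK293 cells with Gal4-LXR fusion and GAL4-driven luciferase reporter; potency for activation of Gal4-LXR reporter so compounds are agonists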
T1 sequence (P55055 whole entry): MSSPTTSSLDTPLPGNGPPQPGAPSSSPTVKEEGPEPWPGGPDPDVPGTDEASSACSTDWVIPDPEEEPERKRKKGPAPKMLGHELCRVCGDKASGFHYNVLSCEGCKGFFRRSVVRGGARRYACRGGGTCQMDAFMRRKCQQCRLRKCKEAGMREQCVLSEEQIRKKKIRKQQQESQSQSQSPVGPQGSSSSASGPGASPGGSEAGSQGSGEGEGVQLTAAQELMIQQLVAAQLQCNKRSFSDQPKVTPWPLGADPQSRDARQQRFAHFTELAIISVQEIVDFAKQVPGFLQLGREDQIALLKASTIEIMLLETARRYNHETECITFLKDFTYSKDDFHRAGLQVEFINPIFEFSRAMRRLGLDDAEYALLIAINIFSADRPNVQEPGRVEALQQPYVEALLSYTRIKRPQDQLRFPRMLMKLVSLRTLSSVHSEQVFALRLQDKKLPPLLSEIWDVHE

[2] = HepG2 cell cytotoxicity, dose response, cytotoxicity control, ATP luminescence, cherry-pick, activator set 2 (AID 1053143); assay type: functional, cell-based
[3] = molecular target: Glucose-6-phosphate 1-dehydrogenase (Homo sapiens, UniProt P11413); assay: human G6PD enzyme inhibitors, dose response, selectivity assay for P. falciparum G6PD inhibitor project, biochemical, fluorescence (AID 504792); assay type: functional
[4] = molecular target: T2, Heat shock factor protein 1 (Mus musculus, UniProt P38532); assay: inhibition of MG132-induced HSE-luciferase signal, confirmation, cell-based, NIH3T3, luminescence, dose retest (AID 2382); assay type: functional;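 note: NIH3T3 fibroblasts with HSF1-driven luciferase reporter stressed by proteasome inhibitor MG132; luminescence from HSF1-driven luciferase expression after 8 hours of MG132 stress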
T2 sequence (P38532 whole entry): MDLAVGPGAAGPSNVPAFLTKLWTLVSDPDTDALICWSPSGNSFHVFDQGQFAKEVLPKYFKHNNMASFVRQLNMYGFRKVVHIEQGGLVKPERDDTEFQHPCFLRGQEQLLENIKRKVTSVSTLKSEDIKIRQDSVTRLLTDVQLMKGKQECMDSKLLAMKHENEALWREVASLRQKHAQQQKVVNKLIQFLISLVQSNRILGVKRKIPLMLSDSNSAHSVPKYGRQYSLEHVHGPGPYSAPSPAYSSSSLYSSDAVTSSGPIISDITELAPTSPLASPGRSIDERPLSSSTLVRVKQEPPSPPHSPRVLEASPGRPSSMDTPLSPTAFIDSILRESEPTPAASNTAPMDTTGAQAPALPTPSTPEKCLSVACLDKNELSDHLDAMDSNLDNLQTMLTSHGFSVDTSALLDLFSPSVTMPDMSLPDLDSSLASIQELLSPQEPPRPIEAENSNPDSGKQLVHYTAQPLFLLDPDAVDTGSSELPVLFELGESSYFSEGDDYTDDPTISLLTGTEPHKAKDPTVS

[5] = molecular target: T3, Ubiquitin-conjugating enzyme E2 N (Homo sapiens, UniProt P61088); assay type: functional;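 note: Dose-response confirmation in a TR-FRET assay detecting UBC13-driven polyubiquitin chain formation, inhibition measured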
T3 sequence (P61088 whole entry): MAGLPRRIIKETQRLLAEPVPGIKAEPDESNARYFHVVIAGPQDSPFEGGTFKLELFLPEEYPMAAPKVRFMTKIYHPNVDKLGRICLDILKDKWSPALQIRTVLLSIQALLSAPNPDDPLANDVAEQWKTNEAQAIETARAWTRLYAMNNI

[6] = molecular target: T4, Apoptotic protease-activating factor 1 (Homo sapiens, UniProt O14727); assay type: functional
T4 sequence (O14727 whole entry): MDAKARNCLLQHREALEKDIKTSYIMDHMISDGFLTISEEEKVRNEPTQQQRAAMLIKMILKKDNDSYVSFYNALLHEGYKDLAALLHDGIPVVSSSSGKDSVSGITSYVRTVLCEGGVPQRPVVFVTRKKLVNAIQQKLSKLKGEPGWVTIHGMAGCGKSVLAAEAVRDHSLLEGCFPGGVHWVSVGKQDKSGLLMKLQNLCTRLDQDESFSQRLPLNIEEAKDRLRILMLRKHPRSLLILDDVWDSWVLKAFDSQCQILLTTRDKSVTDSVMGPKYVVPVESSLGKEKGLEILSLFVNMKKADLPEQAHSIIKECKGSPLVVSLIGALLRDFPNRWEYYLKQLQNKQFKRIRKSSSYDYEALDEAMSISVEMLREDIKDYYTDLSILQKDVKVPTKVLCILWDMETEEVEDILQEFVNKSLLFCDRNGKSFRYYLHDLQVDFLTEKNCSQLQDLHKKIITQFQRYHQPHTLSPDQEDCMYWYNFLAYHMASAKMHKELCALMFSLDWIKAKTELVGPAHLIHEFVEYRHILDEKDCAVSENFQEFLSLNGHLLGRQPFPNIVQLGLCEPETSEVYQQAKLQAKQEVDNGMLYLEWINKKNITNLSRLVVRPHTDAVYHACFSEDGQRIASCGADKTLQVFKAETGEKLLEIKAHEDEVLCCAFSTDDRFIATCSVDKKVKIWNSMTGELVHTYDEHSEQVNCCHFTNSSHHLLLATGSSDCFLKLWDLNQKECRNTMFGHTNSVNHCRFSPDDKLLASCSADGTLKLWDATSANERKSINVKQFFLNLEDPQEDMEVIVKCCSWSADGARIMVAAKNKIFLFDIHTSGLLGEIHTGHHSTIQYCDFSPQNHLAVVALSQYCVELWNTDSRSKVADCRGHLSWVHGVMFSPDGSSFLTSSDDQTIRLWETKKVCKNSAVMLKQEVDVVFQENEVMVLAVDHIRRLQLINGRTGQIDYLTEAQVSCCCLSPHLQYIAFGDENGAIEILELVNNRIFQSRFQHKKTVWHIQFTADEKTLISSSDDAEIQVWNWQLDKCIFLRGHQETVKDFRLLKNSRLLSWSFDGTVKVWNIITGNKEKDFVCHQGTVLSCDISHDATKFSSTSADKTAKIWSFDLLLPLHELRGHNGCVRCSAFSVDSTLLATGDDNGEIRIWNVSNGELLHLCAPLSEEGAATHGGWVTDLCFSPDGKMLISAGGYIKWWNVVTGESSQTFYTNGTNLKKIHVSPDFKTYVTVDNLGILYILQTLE

[7] = molecular target: Cytochrome P450 2C9 (Homo sapiens, UniProt P11712)
[8] = tested on: Vero; assay: cells; assay type: functional, cell-based; details: Chlorocebus sabaeus
[9] = tested on: Vero; assay: cells; assay type: functional; details: Chlorocebus sabaeus
[10] = inhibitors of PGC1a acetylation in cells, dose response, cell-based, cherry-picked samples (AID 720514); assay type: functional;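 note: potency may reflect raised or lowered acetylation signal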
[11] = M. tuberculosis H37Rv growth inhibitors, H37Rv strain (AID 1626); assay type: functional
[12] = cells
[13] = molecular target: Major prion protein (Homo sapiens, UniProt P04156); assay type: functional, cell-based
[14] = human group III sPLA2 inhibitors, dose response, biochemical, QFRET, IC50 (AID 743457);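 note: green fluorescence rise as the enzyme cleaves BODIPY PC-A2 in liposomes; potency for inhibition of the enzyme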
[15] = molecular target: SWI/SNF-related matrix-associated actin-dependent regulator of chromatin subfamily A member 2 (Homo sapiens, UniProt P51531); assay: Luminescence-based cell-based high throughput dose response assay to identify activators of the function of SWI/SNF related, matrix associated, actin dependent regulator of chromatin, subfamily a, member 2 (SMARCA2, BRM).; assay type: functional
[16] = Counterscreen for activators of the function of SWI/SNF related, matrix associated, actin dependent regulator of chromatin, subfamily a, member 2 (SMARCA2, BRM): Luminescence-based cell-based high throughput dose response assay to identify non-selective compounds using the VP16 reporter assay.; assay type: functional
[17] = growth suppression of PTEN-null colon cells, dose response, cell-based, HCT116 PTEN knockout (AID 1047); assay type: functional;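 note: HCT116 colon tumor cells with PTEN knocked out; cells exposed to compound for 60 hours before readout; potency for loss of cell viability measured by luminescence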
[18] = growth suppression of beta-catenin-knockout colon cells, dose response, cell-based, HCT116, human colon tumor (AID 1045); assay type: functional;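 note: HCT116 colon tumor cells with beta catenin knocked out; cells exposed to compound for 60 hours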
[19] = cytotoxicity in MIN6 insulinoma cells, dose response, cytotoxicity control, cell-based, mouse insulinoma (AID 2122); assay type: functional;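 note: confirmatory high-throughput counterscreen run to flag cytotoxic compounds; mouse MIN-6 beta cells carrying an insulin promoter eGFP reporter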
[20] = insulin promoter down-regulators in MIN6 cells, imaging, high-content screening, mouse beta cells (AID 1628); assay type: functional
[21] = molecular target: T5, Protein Tat (Human immunodeficiency virus type 1 group M subtype B (isolate HXB2)(HIV-1), UniProt P04608); assay type: functional;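 note: tat binding to TAR RNA read out by fluorescence polarization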
T5 sequence (P04608 whole entry): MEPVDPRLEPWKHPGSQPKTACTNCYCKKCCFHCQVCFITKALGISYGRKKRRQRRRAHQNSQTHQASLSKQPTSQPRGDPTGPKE

[22] = inhibitors of Vif binding to APOBEC3G peptide, primary screen, biochemical, TR-FRET, GST-Vif 1-94, biotin-A3G peptide, dose response retest (AID 1117319); assay type: functional;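 note: TR-FRET signal of purified GST-Vif binding a biotinylated A3G peptide; inhibitors lower the FRET signal by blocking Vif and A3G binding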
[23] = Luminescence Cell-Based Dose Retest to Confirm Inhibitors of Cancer Stem Cells. [Related pubchem assays (depositor defined):AID2717, AID2721]; assay type: functional; details: Homo sapiens
[24] = Shn3 3'UTR reporter inhibitors, dose response, cell-based, Clone20 osteoblasts, firefly luciferase, cherry-picked (AID 624132); assay type: functional;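 note: firefly luciferase luminescence from reporter carrying the Shn3 3'UTR in osteoblasts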
[25] = control 3'UTR Renilla luciferase suppression, dose response, counter-screen for Shn3 inhibitor project, cell-based, Clone20-Shn3RL, cherry-picked (AID 624133); assay type: functional
[26] = MC4R antagonists, dose response, counter-screen for LGR2 antagonist project, cell-based, plate reader, cherry pick (AID 743444); assay type: functional;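 note: transfected HEK 293 cells stimulated with alpha-MSH peptide; potency of inhibitors of the alpha-MSH evoked signal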
[27] = A549 cell cytotoxicity, dose response, cytotoxicity control, plate reader, cherry-pick, antagonist series (AID 743412); assay type: functional, cell-based
[28] = LGR2 antagonists, dose response, cell-based, HEK293, CRE-luciferase reporter, cherry pick, set 2 (AID 743343); assay type: functional;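 note: transfected cells were stimulated with diluted bursicon conditioned medium after compound addition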
[29] = molecular target: Heat shock protein HSP 90-alpha (Homo sapiens, UniProt P07900); assay type: functional, organism-based

O=C(Nc1ncccc1O)c1cc2ccccc2o1
EC50 [1]: > 67.6 µM (inactive)
AC50 [2]: 26 µM (active)

O=C(Nc1nnc(S(=O)(=O)N2CCCCCC2)s1)c1cccc(Br)c1
IC50 [3]: 78.9 µM (inactive)
EC50 [4]: > 195 µM (not active)

COc1ccc(C(CNC(=O)COc2c(C)cc(C)cc2C)N2CCOCC2)cc1 (stereo unspecified)
IC50 [5]: > 20 µM (inactive)
IC50 [6]: > 100 µM (inactive)

O=C(Oc1ccc2ccccc2c1Br)N1CCCCCC1
AC50 [7]: 25.1 µM (inconclusive)
IC50 [8]: 4.26 µM (active)
CC50 [9]: > 25 µM (active)

Cc1oc2c(c1C(=O)O)C(=O)c1ccccc1C2=O
IC50 [6]: 11.4 µM (active)

CCc1ccc(NC(=O)CSc2nnc(-c3cnccn3)n2Cc2ccco2)cc1
AC50 [10]: 32.5 µM (active)

CCCc1ccc(-c2cc(C(=O)NC3=NCCS3)c3ccccc3n2)cc1
IC50 [11]: > 100 µM (active)

Cc1nc2ccc(Br)cc2c(-c2ccccc2)c1C(=O)O
IC50 [12]: > 138 µM (inactive)
IC50 [13]: 5.47 µM (active)

Cc1cc(NC(=O)c2ccccc2)ncc1NC(=O)c1ccco1
AC50 [2]: 26 µM (active)

Cc1ccc2nc(NNC(=O)c3ccc4c(c3)OCCO4)sc2c1
IC50 [14]: > 122 µM (inactive)

NC(=O)c1ccc(-c2ccc(Br)cc2)o1
IC50 [12]: > 138 µM (inactive)
IC50 [13]: 7.42 µM (active)

COC(=O)CSc1nc(Cc2ccccc2)nc2ccccc12
IC50 [12]: > 138 µM (inactive)
IC50 [13]: 3.29 µM (active)

COCC(=O)Nc1ccc(Br)c(C)c1
IC50 [11]: > 100 µM (active)

N#C/C(=C/c1cccs1)c1nc2ccccc2[nH]1
EC50 [15]: > 91.1 µM (inactive)
EC50 [16]: > 91.1 µM (inactive)

COc1ccc(C(NC(=O)c2c(F)c(F)c(F)c(F)c2F)c2ccccc2)cc1 (stereo unspecified)
EC50 [17]: 27.4 µM (active)
AC50 [10]: 4.77 µM (active)
EC50 [18]: 16.8 µM (active)
IC50 [19]: 1.7 µM (active)
IC50 [20]: 1.79 µM (active)

COCCNc1nnc(SC(C)C(=O)Nc2ccc(-c3nc4ccc(C)cc4s3)cc2)s1 (stereo unspecified)
EC50 [17]: 30 µM (active)
IC50 [21]: > 100 µM (active)
EC50 [18]: 39.1 µM (active)
IC50 [22]: > 50 µM (active)
AC50 [23]: 10.5 µM (active)

O=C1CCCCC1Nc1ccc2ccccc2c1 (stereo unspecified)
IC50 [8]: > 12.5 µM (active)

O=C(CCCc1ccccc1)NCc1ccccc1
EC50 [15]: > 91.3 µM (inactive)
EC50 [16]: > 91.3 µM (inactive)

O=C1/C(=C/c2ccccn2)SC(=S)N1Nc1ncc(C(F)(F)F)cc1Cl
AC50 [24]: 49.9 µM (active)
AC50 [25]: 33.1 µM (active)
IC50 [14]: 47.8 µM (inactive)

N#C[C@@H]1[C@H](c2ccc(C#CC3CCCCC3)cc2)[C@@H](CO)N1S(=O)(=O)c1ccccc1
AC50 [26]: 8.18 µM (active)
AC50 [27]: 27.9 µM (active)
AC50 [28]: 12.8 µM (active)

O=C(Nc1nc(-c2cccc(Br)c2)cs1)Oc1ccccc1
EC50 [15]: > 91.2 µM (inactive)
EC50 [16]: > 91.2 µM (inactive)

CC(C)N1CCN(c2ccc(OC[C@H]3CO[C@](Cn4cncn4)(c4ccc(Cl)cc4Cl)O3)cc2)CC1 [TERCONAZOLE]
AC50 [29]: 1.41 µM (active)
CC50 [9]: 22.1 µM (active)
